Assay results taken from publication PMC7660650, “Chemical Starting Matter for HNF4α Ligand Discovery and Chemogenomics” (International Journal of Molecular Sciences, 2020).
Where “and” joins values, the source holds several entries; their conditions need not be identical. Identical values can stand only once.

Each molecule was assayed against T1, Gal4-HNF4α (human HNF4α LBD) (Homo sapiens, UniProt P41235) (assay: Hybrid Gal4-HNF4α reporter gene assay in transiently transfected HEK293T cells). Settings: Table S1, primary screening, 50 µM.
T1 construct: uniprot entry: P41235-1, residues 142-377; expressed in transfected cells; host or cells: HEK293T
T1 sequence (P41235 142-377): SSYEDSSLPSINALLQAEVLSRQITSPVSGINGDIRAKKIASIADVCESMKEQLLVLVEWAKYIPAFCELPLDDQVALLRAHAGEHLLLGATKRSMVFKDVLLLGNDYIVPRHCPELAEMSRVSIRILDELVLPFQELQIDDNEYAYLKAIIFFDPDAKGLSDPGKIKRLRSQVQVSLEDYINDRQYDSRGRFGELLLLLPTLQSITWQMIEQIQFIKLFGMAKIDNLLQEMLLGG
Assay type: cell-based
For `COc1ccc(CC(=O)O)cc1` [Prestw-Frag-2960, COc1ccc(CC(O)=O)cc1], the “HNF4a-screening_activity_(mean_of_n=2)” value was 0.9108.
`N=C(N)NC(=N)Nc1ccc(Cl)cc1` [Prestw-Frag-2722, NC(=N)NC(=N)Nc1ccc(Cl)cc1] was tested, and the “HNF4a-screening_activity_(mean_of_n=2)” value was 0.8665.
For `Nc1nc2ccccc2n1Cc1ccc(F)cc1` [Prestw-Frag-1050, Nc1nc2ccccc2n1Cc1ccc(F)cc1], the “HNF4a-screening_activity_(mean_of_n=2)” value was 0.6752 and 1.069.
With `O=c1[nH]ncc2ccccc12` [Prestw-Frag-1560, O=c1[nH]ncc2ccccc12] the “HNF4a-screening_activity_(mean_of_n=2)” value was 1.119.
`N#CCC(=O)N1CCCCC1` [Prestw-Frag-3730, O=C(CC#N)N1CCCCC1] was tested, and the “HNF4a-screening_activity_(mean_of_n=2)” value was 0.9277.
`O=C1CCc2ccc(O)cc2N1` [Prestw-Frag-2854, Oc1ccc2CCC(=O)Nc2c1] was tested, and the “HNF4a-screening_activity_(mean_of_n=2)” value was 1.013.
For `c1cnccn1` [Prestw-Frag-2501, c1cnccn1], the “HNF4a-screening_activity_(mean_of_n=2)” value was 1.207.
For `NC(=O)[C@H](N)c1ccccc1` [Prestw-Frag-1099, N[C@@H](C(N)=O)c1ccccc1], the “HNF4a-screening_activity_(mean_of_n=2)” value was 1.079.
With `CCOc1ccccn1` [Prestw-Frag-2477, CCOc1ccccn1] the “HNF4a-screening_activity_(mean_of_n=2)” value was 1.372.
In the case of `Oc1ccccc1C1CCCC1` [Prestw-Frag-2706, Oc1ccccc1C1CCCC1], the “HNF4a-screening_activity_(mean_of_n=2)” value is reported as 0.8607.
In the case of `COC(=O)c1scc(C)c1N` [Prestw-Frag-1111, COC(=O)c1scc(C)c1N], the “HNF4a-screening_activity_(mean_of_n=2)” value is reported as 1.183.
With `c1ccc2cnccc2c1` [Prestw-Frag-2493, c1ccc2cnccc2c1] the “HNF4a-screening_activity_(mean_of_n=2)” value was 1.292.
With `COc1ccc(N2CCN(c3ccc(N)cc3)CC2)cc1` [Prestw-Frag-1557, COc1ccc(cc1)N1CCN(CC1)c1ccc(N)cc1] the “HNF4a-screening_activity_(mean_of_n=2)” value was 1.098.
With `CCN(CC)CCOC(=O)C1(c2ccccc2)CCCC1` [Prestw-Frag-2774, CCN(CC)CCOC(=O)C1(CCCC1)c1ccccc1] the “HNF4a-screening_activity_(mean_of_n=2)” value was 1.226.
In the case of `O=C(O)c1ccccc1Nc1cccc(Cl)c1` [Prestw-Frag-1319, OC(=O)c1ccccc1Nc1cccc(Cl)c1], the “HNF4a-screening_activity_(mean_of_n=2)” value is reported as 0.64.
`Nc1nncs1` [Prestw-Frag-1009, Nc1nncs1] was tested, and the “HNF4a-screening_activity_(mean_of_n=2)” value was 1.011.
For `C[C@H]1NC(=O)NC1=O` [Prestw-Frag-1311, C[C@H]1NC(=O)NC1=O], the “HNF4a-screening_activity_(mean_of_n=2)” value was 1.09.
`Nc1ccc([N+](=O)[O-])cc1Cl` [Prestw-Frag-1543, Nc1ccc(cc1Cl)[N+]([O-])=O] was tested, and the “HNF4a-screening_activity_(mean_of_n=2)” value was 0.9851.
For `O=C1Cc2cc(F)ccc2N1` [Prestw-Frag-3667, Fc1ccc2NC(=O)Cc2c1], the “HNF4a-screening_activity_(mean_of_n=2)” value was 0.8142.
In the case of `OC(c1ccccc1)c1ccc(Cl)cc1` (stereo not drawn) [Prestw-Frag-1106, OC(c1ccccc1)c1ccc(Cl)cc1], the “HNF4a-screening_activity_(mean_of_n=2)” value is reported as 0.8543.
For `c1ccc(C2CCCNCC2)cc1` (stereo not drawn) [Prestw-Frag-3712, C1CNCCC(C1)c1ccccc1], the “HNF4a-screening_activity_(mean_of_n=2)” value was 1.122.
`NC(=O)Cc1cccs1` [Prestw-Frag-1019, NC(=O)Cc1cccs1] was tested, and the “HNF4a-screening_activity_(mean_of_n=2)” value was 1.073 and 1.154.
For `OC(c1ccccc1)c1ccccc1` [Prestw-Frag-1122, OC(c1ccccc1)c1ccccc1], the “HNF4a-screening_activity_(mean_of_n=2)” value was 1.034.
With `Fc1cccc(F)c1N1CCNCC1` [Prestw-Frag-1806, Fc1cccc(F)c1N1CCNCC1] the “HNF4a-screening_activity_(mean_of_n=2)” value was 0.9867 and 1.428.
`N=C(N)CSCc1ccccc1` [Prestw-Frag-2348, NC(=N)CSCc1ccccc1] was tested, and the “HNF4a-screening_activity_(mean_of_n=2)” value was 1.134.
For `c1cc2c(cc1OC[C@H]1CCCNC1)OCO2` [Prestw-Frag-2789, C(Oc1ccc2OCOc2c1)[C@H]1CCCNC1], the “HNF4a-screening_activity_(mean_of_n=2)” value was 1.15.
In the case of `CCCC(=O)Nc1ccc(O)c(C(C)=O)c1` [Prestw-Frag-1716, CCCC(=O)Nc1ccc(O)c(c1)C(C)=O], the “HNF4a-screening_activity_(mean_of_n=2)” value is reported as 0.8359.
For `c1ccc2[nH]c(CN3CCCC3)nc2c1` [Prestw-Frag-1164, C(N1CCCC1)c1nc2ccccc2[nH]1], the “HNF4a-screening_activity_(mean_of_n=2)” value was 0.7439 and 0.7907.
With `O=C(O)c1ccccc1O` [Prestw-Frag-1045, OC(=O)c1ccccc1O] the “HNF4a-screening_activity_(mean_of_n=2)” value was 1.058.
For `CNC(=O)c1cc(Cl)c(N)cc1OC` [Prestw-Frag-3754, CNC(=O)c1cc(Cl)c(N)cc1OC], the “HNF4a-screening_activity_(mean_of_n=2)” value was 1.064.
